# Measurements: PubChem BioAssay AID1745844 (Carcinogenic Potency Database (CPDB), 2022)
# Where “and” joins values, the source holds several entries; their conditions need not be identical. Identical values can stand only once. Calls of active or inactive are those of the source. The rule behind the calls is not given here.
# Test system: rodent lifetime carcinogenesis bioassay, tumor incidence TD50
# Experiment: chronic cancer bioassays in animals – CPDB, compiled studies (AID 1745844)
smiles,measurement,setting,value
[Ge+4].[Na+].[Na+].[O-2].[O-2].[O-2],carcinogen call,"mouse, strain Charles River CD1, both sexes, in drinking water, site: any site (literature study), lesion: benign tumor, dosed 104 weeks, study length 104 weeks",negative (inactive)
same,carcinogen call,"mouse, strain Charles River CD1, both sexes, in drinking water, site: any site (literature study), lesion: malignant tumor, dosed 104 weeks, study length 104 weeks",negative (inactive)
same,carcinogen call,"mouse, strain Charles River CD1, both sexes, in drinking water, site: any site (literature study), lesion: several types, types named in the paper, dosed 104 weeks, study length 104 weeks",negative (inactive)
same,carcinogen call,"mouse, strain Charles River CD1, both sexes, in drinking water, site: liver, lesion: several types, types named in the paper, dosed 104 weeks, study length 104 weeks",negative (inactive)
same,carcinogen call,"mouse, strain Charles River CD1, both sexes, in drinking water, site: lung, lesion: several types, types named in the paper, dosed 104 weeks, study length 104 weeks",negative (inactive)
same,carcinogen call,"rat, strain Long-Evans BLU:(LE), both sexes, in drinking water, site: any site (literature study), lesion: malignant tumor, dosed 149 weeks, study length 149 weeks",negative (inactive)
same,carcinogen call,"rat, strain Long-Evans BLU:(LE), both sexes, in drinking water, site: any site (literature study), lesion: one or several types, types not named, dosed 149 weeks, study length 149 weeks",negative (inactive)
same,carcinogen call,"rat, strain Long-Evans BLU:(LE), both sexes, in drinking water, site: liver, lesion: one or several types, types not named, dosed 149 weeks, study length 149 weeks",negative (inactive)
CCC(C)[C@H]1O[C@]2(CC[C@@H]1C)CC1C[C@@H](C/C=C(\C)[C@@H](O[C@H]3C[C@H](OC)[C@@H](OC4C[C@H](OC)[C@@H](O)[C@H](C)O4)[C@H](C)O3)[C@@H](C)/C=C/C=C3\CO[C@@H]4[C@H](O)C(C)=C[C@@H](C(=O)O1)[C@]34O)O2 (stereo not given in full) (tested in a mixture with another compound),carcinogen call,"rat, strain Wistar, males, in feed, site: forestomach, lesion: one or several types, types not named, dosed 52 weeks, study length 52 weeks",negative (inactive)
CCCCCCCCCCCCCCCC(=O)OC/C=C(C)/C=C/C=C(C)/C=C/C1=C(C)CCCC1(C)C,carcinogen call,"mouse, strain ICR/Jcl, males, in drinking water, site: forestomach, lesion: one or several types, types not named, dosed 66 weeks, study length 66 weeks",negative (inactive)
Cc1c(COC(=O)[C@@H]2[C@H](/C=C(\Cl)C(F)(F)F)C2(C)C)cccc1-c1ccccc1,TD50,"mouse, strain Swiss Webster, males, in feed, site: urinary bladder, lesion: mesenchymal neoplasm, dosed 86 weeks, study length 86 weeks",286 mg/kg/day
C=C(C)[C@H]1CC=C(C)C(=O)C1,carcinogen call,"mouse, strain B6C3F1, females, by gavage, site: any site (literature study), lesion: several types, types named in the paper, dosed 103 weeks, study length 105 weeks",negative (inactive)
same,carcinogen call,"mouse, strain B6C3F1, males, by gavage, site: any site (literature study), lesion: several types, types named in the paper, dosed 103 weeks, study length 105 weeks",negative (inactive)
same,TD50,"mouse, strain B6C3F1, males, by gavage, site: liver, lesion: hepatocellular adenoma + hepatocellular carcinoma + neoplastic nodule, dosed 103 weeks, study length 105 weeks",63800 mg/kg/day
N#Cc1ccc(C2CCCc3cncn32)cc1 (stereo not given),carcinogen call,"rat, strain Sprague-Dawley, females, by gavage, site: any site (literature study), lesion: several types, types named in the paper, dosed 104 weeks, study length 104 weeks",negative (inactive)
same,carcinogen call,"rat, strain Sprague-Dawley, females, by gavage, site: liver, lesion: several types, types named in the paper, dosed 104 weeks, study length 104 weeks",negative (inactive)
same,carcinogen call,"rat, strain Sprague-Dawley, females, by gavage, site: mammary gland, lesion: several types, types named in the paper, dosed 104 weeks, study length 104 weeks",negative (inactive)
same,carcinogen call,"rat, strain Sprague-Dawley, males, by gavage, site: liver, lesion: several types, types named in the paper, dosed 104 weeks, study length 104 weeks",negative (inactive)
COc1cc(N)ccc1N=Nc1ccccc1,carcinogen call,"mouse, strain B6C3F1, females, in feed, site: liver, lesion: one or several types, types not named, dosed 56 weeks, study length 56 weeks",negative (inactive)
same,carcinogen call,"mouse, strain B6C3F1, males, in feed, site: liver, lesion: one or several types, types not named, dosed 56 weeks, study length 56 weeks",negative (inactive)
O=C1OC(c2ccc(O)cc2)(c2ccc(O)cc2)c2ccccc21,TD50,"mouse, strain B6C3F1, females, in feed, site: all sites + ovary, lesion: histiocytic sarcoma + lymphoma malignant, thymic origin + malignant lymphoma + sex-cord stromal tumor, benign, bilateral + sex-c, dosed 105 weeks, study length 105 weeks",508 mg/kg/day
same,TD50,"mouse, strain B6C3F1, females, in feed, site: all sites, lesion: histiocytic sarcoma, dosed 105 weeks, study length 105 weeks",4080 mg/kg/day
same,TD50,"mouse, strain B6C3F1, females, in feed, site: all sites, lesion: lymphoma malignant, thymic origin, dosed 105 weeks, study length 105 weeks",1610 mg/kg/day
same,TD50,"mouse, strain B6C3F1, females, in feed, site: all sites, lesion: malignant lymphoma, dosed 105 weeks, study length 105 weeks",748 mg/kg/day
same,TD50,"mouse, strain B6C3F1, females, in feed, site: any site (literature study), lesion: several types, types named in the paper, dosed 105 weeks, study length 105 weeks",1740 mg/kg/day
same,TD50,"mouse, strain B6C3F1, females, in feed, site: lung, lesion: alveolar/bronchiolar adenoma + alveolar/bronchiolar carcinoma, dosed 105 weeks, study length 105 weeks",9190 mg/kg/day
same,TD50,"mouse, strain B6C3F1, females, in feed, site: ovary, lesion: sex-cord stromal tumor, benign, bilateral + sex-cord stromal tumor, benign, dosed 105 weeks, study length 105 weeks",1900 mg/kg/day
same,TD50,"mouse, strain B6C3F1, males, in feed, site: all sites, lesion: histiocytic sarcoma + lymphoma malignant, thymic origin, dosed 104 weeks, study length 104 weeks",1150 mg/kg/day
same,TD50,"mouse, strain B6C3F1, males, in feed, site: all sites, lesion: histiocytic sarcoma, dosed 104 weeks, study length 104 weeks",2680 mg/kg/day
same,TD50,"mouse, strain B6C3F1, males, in feed, site: all sites, lesion: lymphoma malignant, thymic origin, dosed 104 weeks, study length 104 weeks",2740 mg/kg/day
same,TD50,"mouse, strain B6C3F1, males, in feed, site: any site (literature study), lesion: several types, types named in the paper, dosed 104 weeks, study length 104 weeks",32200 mg/kg/day
same,TD50,"mouse, strain B6C3F1, males, in feed, site: lung, lesion: alveolar/bronchiolar adenoma + alveolar/bronchiolar carcinoma, dosed 104 weeks, study length 104 weeks",8060 mg/kg/day
same,TD50,"mouse, strain B6C3F1, males, in feed, site: spleen, lesion: hemangiosarcoma, dosed 104 weeks, study length 104 weeks",1640 mg/kg/day
same,TD50,"mouse, strain BALB/c, males, in feed, site: liver, lesion: hepatoma, dosed 60 weeks, study length 104 weeks",20800 mg/kg/day (inactive)
same,carcinogen call,"mouse, strain BALB/c, males, in feed, site: lung, lesion: one or several types, types not named, dosed 60 weeks, study length 104 weeks",negative (inactive)
same,carcinogen call,"mouse, strain C57BL/6J, males, by gavage, site: liver, lesion: hepatoma, dosed 69 weeks, study length 104 weeks",negative (inactive)
same,carcinogen call,"mouse, strain C57BL/6J, males, by gavage, site: lung, lesion: one or several types, types not named, dosed 69 weeks, study length 104 weeks",negative (inactive)
same,TD50,"rat, strain Fischer 344, females, in feed, site: adrenal medulla, lesion: pheochromocytoma benign, bilateral + pheochromocytoma, benign, dosed 105 weeks, study length 105 weeks",4160 mg/kg/day
same,TD50,"rat, strain Fischer 344, females, in feed, site: adrenal medulla, lesion: pheochromocytoma benign, bilateral + pheochromocytoma, malignant + pheochromocytoma, benign, dosed 105 weeks, study length 105 weeks",3530 mg/kg/day
same,TD50,"rat, strain Fischer 344, males, in feed, site: adrenal medulla + kidney, lesion: pheochromocytoma benign, bilateral + pheochromocytoma, benign + tubule adenoma + tubule carcinoma, dosed 104 weeks, study length 104 weeks",250 mg/kg/day
same,TD50,"rat, strain Fischer 344, males, in feed, site: adrenal medulla, lesion: pheochromocytoma benign, bilateral + pheochromocytoma, benign, dosed 104 weeks, study length 104 weeks",517 mg/kg/day
same,TD50,"rat, strain Fischer 344, males, in feed, site: adrenal medulla, lesion: pheochromocytoma benign, bilateral + pheochromocytoma, malignant + pheochromocytoma malignant, bilateral + pheochromocytoma, b, dosed 104 weeks, study length 104 weeks",533 mg/kg/day
same,TD50,"rat, strain Fischer 344, males, in feed, site: any site (literature study), lesion: several types, types named in the paper, dosed 104 weeks, study length 104 weeks",3540 mg/kg/day
same,TD50,"rat, strain Fischer 344, males, in feed, site: kidney, lesion: tubule adenoma + tubule carcinoma, dosed 104 weeks, study length 104 weeks",3220 mg/kg/day and 975 mg/kg/day
same,TD50,"rat, strain Fischer 344, males, in feed, site: kidney, lesion: tubule adenoma, dosed 104 weeks, study length 104 weeks",4050 mg/kg/day and 1040 mg/kg/day
same,TD50,"rat, strain Fischer 344, males, in feed, site: liver, lesion: hepatocellular adenoma + hepatoblastoma + hepatocellular carcinoma, dosed 104 weeks, study length 104 weeks",118000 mg/kg/day
same,TD50,"rat, strain Fischer 344, males, in feed, site: thyroid gland, lesion: follicular-cell adenoma, bilateral + follicular-cell adenoma, dosed 104 weeks, study length 104 weeks",6990 mg/kg/day
CNC(=O)ON=C(SC)C(=O)N(C)C,carcinogen call,"mouse, strain Charles River CD1, females, in feed, site: any site (literature study), lesion: several types, types named in the paper, dosed 104 weeks, study length 104 weeks",negative (inactive)
same,carcinogen call,"mouse, strain Charles River CD1, males, in feed, site: any site (literature study), lesion: several types, types named in the paper, dosed 104 weeks, study length 104 weeks",negative (inactive)
same,carcinogen call,"rat, strain Charles River CD (Sprague-Dawley), females, in feed, site: liver, lesion: hepatocellular hyperplastic nodule, dosed 104 weeks, study length 104 weeks",negative (inactive)
same,carcinogen call,"rat, strain Charles River CD (Sprague-Dawley), males, in feed, site: liver, lesion: one or several types, types not named, dosed 104 weeks, study length 104 weeks",negative (inactive)
CN(C)CCN(Cc1ccsc1)c1ccccn1,carcinogen call,"rat, strain Fischer 344, females, in drinking water, site: liver, lesion: several types, types named in the paper, dosed 80 weeks, study length 130 weeks",negative (inactive)
same,TD50,"rat, strain Fischer 344, females, in drinking water, site: thyroid follicle, lesion: several types, types named in the paper, dosed 80 weeks, study length 130 weeks",10700 mg/kg/day (inactive)
same,TD50,"rat, strain Fischer 344, males, in drinking water, site: liver, lesion: several types, types named in the paper, dosed 80 weeks, study length 130 weeks",96.8 mg/kg/day (inactive)
same,carcinogen call,"rat, strain Fischer 344, males, in drinking water, site: thyroid follicle, lesion: several types, types named in the paper, dosed 80 weeks, study length 130 weeks",negative (inactive)
